For orientation: Cmax means the peak of the concentration-time curve. As a reminder, the half-life is the time needed for the level to fall by half in the phase considered.

Bounds are passed on as bounds.

Data set [1] in a line: Plasma pharmacokinetics of tariquidar alone. Format: in vivo, human (children and adolescents). Conditions: human, intravenous, tariquidar in combination with chemotherapy, at all dose levels.
The conditions of data set [2]: human, in vivo, 21 days.
The conditions of data set [3]: adults, 2 mg/kg IV over 30 min; cited from earlier work.
For another data set, the system named is Pgp. The note with it: adults, 2 mg/kg IV over 30 min; rhodamine uptake in CD56+ lymphocytes; cited from earlier work.
In data set [4] the test system is Breast Cancer Resistance Protein (BCRP/ABCG2). Conditions: cited from earlier work.
The subject of data set [5] is ATPase activity of the Pgp drug efflux pump. The note with it: introduction statement, no reference given; cited from earlier work.
The conditions of data set [6]: cited from earlier work.
Data set [7] is described as follows: Toxicity, DLT and MTD in phase I trial.
Data set [8] relates to recurrent or refractory solid tumors. The data set can be described thus: Tumor response. Format: in vivo, human (children and adolescents).
The conditions of data set [9]: early clinical trials in adults; cited from earlier work.
For data set [10] the following is noted: single-agent docetaxel 150–235 mg/m^2, children and adolescents with refractory solid tumors; cited from earlier work.

As to `COc1cc2c(cc1OC)CN(CCc1ccc(NC(=O)c3cc(OC)c(OC)cc3NC(=O)c3cnc4ccccc4c3)cc1)CC2` [Tariquidar], in data set [1], the Cmax is above 2000 nM. In addition, in [2], the “tariquidar-related dysgeusia (n = 3), grade” value was determined as 1; the “tariquidar-related hypotension (n = 2), grade” value was 2; the “tariquidar-related nausea (n = 1), grade” value is 1; the “tariquidar-related peripheral edema (n = 1), grade” value is reported as 2. Moreover, the “tariquidar-related pruritus (n = 1), grade” value in data set [2] is on record as 1. Besides, in data set [3], the “area under the concentration time curve (AUC0–48)” value is 12.6 µM·h, the clearance was 160 mL/min/m^2 and the half-life is recorded as 26 h. For the same molecule, the “time for which maximum inhibition of Pgp was maintained” value with Pgp was 24 h. Also, the “inhibition of Breast Cancer Resistance Protein (BCRP/ABCG2)” value in data set [4] is given as “inhibit”. In addition, the “effect on ATPase activity of the Pgp drug efflux pump” value in [5] is listed as “inhibits”. Besides, the tolerability in adults result in data set [6] is “well tolerated”. Further, in [7] (escalation up to 2 mg/kg), the “maximum tolerated dose of tariquidar” value was “No maximum tolerated dose was achieved”.
For `COc1cccc2c1C(=O)c1c(O)c3c(c(O)c1C2=O)C[C@@](O)(C(=O)CO)C[C@@H]3O[C@H]1C[C@H](N)[C@H](O)[C@H](C)O1` [Doxorubicin], the Response entry in data set [8] (person, metastatic adrenocortical carcinoma, two cycles of tariquidar in combination with doxorubicin) is listed as “partial response”. Besides, the “Best response [cycle]” value in [8] (subject 014, rhabdomyosarcoma, with tariquidar 2 mg/kg) is recorded as “partial response”. Besides, the “increase of systemic exposure in combination with tariquidar” value in [9] is given as 26%.
Take `CC(=O)O[C@H]1C(=O)[C@@]2(C)[C@H]([C@H](OC(=O)c3ccccc3)[C@]3(O)C[C@H](OC(=O)[C@H](O)[C@@H](NC(=O)c4ccccc4)c4ccccc4)C(C)=C1C3(C)C)[C@]1(OC(C)=O)CO[C@@H]1C[C@@H]2O` [paclitaxel]: in data set [9], the “increase of systemic exposure in combination with tariquidar” value is listed as 44%.
For the molecule `CCC1=C[C@@H]2CN(C1)Cc1c([nH]c3ccccc13)[C@@](C(=O)OC)(c1cc3c(cc1OC)N(C)[C@H]1[C@@](O)(C(=O)OC)[C@H](OC(C)=O)[C@]4(CC)C=CCN5CC[C@]31[C@@H]54)C2` [Vinorelbine], the “Best response [cycle]” value in data set [8] (subject 009, pancreatoblastoma, with tariquidar 1.5 mg/kg) is given as “complete radiographic response”. Besides, the “change in pharmacokinetics in combination with tariquidar” value in [9] is recorded as “No change”.
`CC(=O)O[C@@]12CO[C@@H]1C[C@H](O)[C@@]1(C)C(=O)[C@H](O)C3=C(C)[C@@H](OC(=O)[C@H](O)[C@@H](NC(=O)OC(C)(C)C)c4ccccc4)C[C@@](O)([C@@H](OC(=O)c4ccccc4)[C@H]21)C3(C)C` [Docetaxel]: in data set [10], the “platelet counts less than 50,000/μL” value was “not observed”. Further, in data set [7] (docetaxel in combination with tariquidar, three of nine participants), the “participants with grade 3 thrombocytopenia (platelet count ≥10,000, <50,000/μL)” value is reported as 33%.

The record behind these values is publication PMC7751951 (Cancer chemotherapy and pharmacology, 2015).
